Assay results as given in US7998965B2, “Glutamate aggrecanase inhibitors” (Wyeth LLC, priority 2005, dated 2011).

Target: T1, purified recombinant human Aggrecanase-1 (rAgg1) (Homo sapiens, UniProt O75173)
T1 sequence (O75173 213-837): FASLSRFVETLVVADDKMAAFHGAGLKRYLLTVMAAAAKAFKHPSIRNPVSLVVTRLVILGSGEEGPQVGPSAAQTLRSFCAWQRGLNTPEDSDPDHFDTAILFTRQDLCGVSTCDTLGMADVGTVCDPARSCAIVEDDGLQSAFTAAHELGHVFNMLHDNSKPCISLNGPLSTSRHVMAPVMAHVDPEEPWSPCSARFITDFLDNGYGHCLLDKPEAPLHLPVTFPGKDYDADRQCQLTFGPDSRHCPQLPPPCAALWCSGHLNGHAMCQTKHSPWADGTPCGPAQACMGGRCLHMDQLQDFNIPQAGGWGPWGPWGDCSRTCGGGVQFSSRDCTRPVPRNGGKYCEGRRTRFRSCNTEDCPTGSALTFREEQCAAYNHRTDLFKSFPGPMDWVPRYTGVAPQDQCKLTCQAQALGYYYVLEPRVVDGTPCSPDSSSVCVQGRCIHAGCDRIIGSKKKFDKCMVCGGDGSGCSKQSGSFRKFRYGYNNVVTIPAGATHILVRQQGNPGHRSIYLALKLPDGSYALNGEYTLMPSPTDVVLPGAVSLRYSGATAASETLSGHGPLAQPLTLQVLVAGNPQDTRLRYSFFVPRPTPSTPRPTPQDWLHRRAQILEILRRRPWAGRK
Assay: In vitro fluorescence screen for Aggrecanase-1 inhibitors
Assay type: biochemical
Conditions: Table 1

Compound	Agg1 IC50 (nM)
COc1cc(CNC(=O)[C@H](CCC(=O)O)NC(=O)c2cccc3c2Cc2ccccc2-3)cc(OC)c1OC [Example 8LLLL, N^2-(9H-fluoren-1-ylcarbonyl)-N^1-(3,4,5-trimethoxybenzyl)-L-α-glutamine]	no inh

Same assay, conditions: Table 1; enzyme not given, column follows Agg1 IC50; read-out: Ki

Compound	Ki
O=C(O)CC[C@H](NC(=O)c1ccc2c(c1)Cc1ccccc1-2)C(=O)NCCCc1ccccc1 [Example 8IIII, N^2-(9H-fluoren-2-ylcarbonyl)-N^1-(3-phenylpropyl)-L-α-glutamine]	9 nM
COc1cc(CNC(=O)[C@H](CCC(=O)O)NC(=O)c2ccc3c(c2)Cc2ccccc2-3)cc(OC)c1OC [Example 8KKKK, N^2-(9H-fluoren-2-ylcarbonyl)-N^1-(3,4,5-trimethoxybenzyl)-L-α-glutamine]	4 nM
COc1cc(CNC(=O)[C@H](CCC(=O)O)NC(=O)c2ccc3c(c2)C(=O)c2ccccc2-3)cc(OC)c1OC [Example 8MMMM, N^2-[(9-oxo-9H-fluoren-2-yl)carbonyl]-N^1-(3,4,5-trimethoxybenzyl)-L-α-glutamine]	57 nM
CCCCCCNC(=O)[C@H](CCC(=O)O)NC(=O)c1ccc2c(c1)Cc1ccccc1-2 [Example 8OOOO, N^2-(9H-fluoren-2-ylcarbonyl)-N^1-hexyl-L-α-glutamine]	60 nM

Same assay, conditions: Table 1; read-out: Agg1 IC50

Compound	IC50
CC(C)(Cc1ccc(F)cc1)NC(=O)[C@@H](CCC(=O)O)NC(=O)c1ccc(-c2ccccc2)cc1 [Example 8FFFF, N^2-(biphenyl-4-ylcarbonyl)-N^1-[2-(4-fluorophenyl)-1,1-dimethylethyl]-D-α-glutamine]	3600 nM
Cc1cccc(CNC(=O)[C@H](CCC(=O)O)NC(=O)c2ccc(-c3ccccc3)cc2)c1C [Example 8HH, N^2-(1,1′-biphenyl-4-ylcarbonyl)-N^1-(2,3-dimethylbenzyl)-L-α-glutamine]	160 nM
O=C(O)CCC(NC(=O)c1ccc(Nc2ncccn2)cc1)C(=O)NCc1ccccc1 (centres unmarked) [Example 8HHHH]	200 nM
O=C(O)CC[C@H](NC(=O)c1ccc(-c2ccccc2)cc1)C(=O)NCC1C2CC3CC(C2)CC1C3 (stereo partly drawn) [Example 8I, N^1-(2-adamantylmethyl)-N^2-(1,1′-biphenyl-4-ylcarbonyl)-L-α-glutamine]	500 nM
Cc1ccc(CNC(=O)[C@H](CCC(=O)O)NC(=O)c2ccc(-c3ccccc3)cc2)cc1 [Example 8III, N^2-(1,1′-biphenyl-4-ylcarbonyl)-N^1-(4-methylbenzyl)-L-α-glutamine]	120 nM
O=C(O)CC[C@H](NC(=O)c1ccc2c(c1)Cc1ccccc1-2)C(=O)NCCCc1ccccc1 [Example 8IIII, N^2-(9H-fluoren-2-ylcarbonyl)-N^1-(3-phenylpropyl)-L-α-glutamine]	< 30 nM
COCCNC(=O)[C@H](CCC(=O)O)NC(=O)c1ccc(-c2ccccc2)cc1 [Example 8J, N^2-(1,1′-biphenyl-4-ylcarbonyl)-N^1-(2-methoxyethyl)-L-α-glutamine]	360 nM
O=C(O)CC[C@H](NC(=O)c1cccc2c1Cc1ccccc1-2)C(=O)NCCCc1ccccc1 [Example 8JJJJ, N^2-(9H-fluoren-1-ylcarbonyl)-N^1-(3-phenylpropyl)-L-α-glutamine]	> 50000 nM
COc1ccc(CNC(=O)[C@H](CCC(=O)O)NC(=O)c2ccc(-c3ccccc3)cc2)cc1 [Example 8K, N^2-(1,1′-biphenyl-4-ylcarbonyl)-N^1-(4-methoxybenzyl)-L-α-glutamine]	300 nM
CC(C)(C)c1ccc(CNC(=O)[C@H](CCC(=O)O)NC(=O)c2ccc(-c3ccccc3)cc2)cc1 [Example 8KK, N^2-(1,1′-biphenyl-4-ylcarbonyl)-N^1-(4-tert-butylbenzyl)-L-α-glutamine]	180 nM
COc1cc(CNC(=O)[C@H](CCC(=O)O)NC(=O)c2ccc3c(c2)Cc2ccccc2-3)cc(OC)c1OC [Example 8KKKK, N^2-(9H-fluoren-2-ylcarbonyl)-N^1-(3,4,5-trimethoxybenzyl)-L-α-glutamine]	< 30 nM
CC(C)(C)CCNC(=O)[C@H](CCC(=O)O)NC(=O)c1ccc(-c2ccccc2)cc1 [Example 8LLL, N^2-(biphenyl-4-ylcarbonyl)-N^1-(3,3-dimethylbutyl)-L-α-glutamine]	230 nM
COc1cc(CNC(=O)[C@H](CCC(=O)O)NC(=O)c2ccc3c(c2)C(=O)c2ccccc2-3)cc(OC)c1OC [Example 8MMMM, N^2-[(9-oxo-9H-fluoren-2-yl)carbonyl]-N^1-(3,4,5-trimethoxybenzyl)-L-α-glutamine]	47 nM
O=C(O)CC[C@H](NC(=O)c1ccc(-c2ccccc2)cc1)C(=O)NCc1cccc2ccccc12 [Example 8N, N^2-(1,1′-biphenyl-4-ylcarbonyl)-N^1-(1-naphthylmethyl)-L-α-glutamine]	290 nM
COc1cc(CNC(=O)[C@H](CCC(=O)O)NC(=O)c2ccc(Oc3ccccc3)cc2)cc(OC)c1OC [Example 8NNNN, N^2-(4-phenoxybenzoyl)-N^1-(3,4,5-trimethoxybenzyl)-L-α-glutamine]	3400 nM
O=C(O)CC[C@H](NC(=O)c1ccc(Br)cc1)C(=O)NCc1ccccc1 [Example 8NNNNNN, N^1-benzyl-N^2-(4-bromobenzoyl)-L-α-glutamine]	~40000 nM
CCCCCCNC(=O)[C@H](CCC(=O)O)NC(=O)c1ccc2c(c1)Cc1ccccc1-2 [Example 8OOOO, N^2-(9H-fluoren-2-ylcarbonyl)-N^1-hexyl-L-α-glutamine]	52 nM
CC(=O)NCCNC(=O)[C@H](CCC(=O)O)NC(=O)c1ccc(-c2ccccc2)cc1 [Example 8OOOOOO, N^1-[2-(acetylamino)ethyl]-N^2-(1,1′-biphenyl-4-ylcarbonyl)-L-α-glutamine]	670 nM
O=C(O)CC[C@H](NC(=O)c1ccc(-c2ccccc2)cc1)C(=O)NCc1ccco1 [Example 8P, N^2-(1,1′-biphenyl-4-ylcarbonyl)-N^1-(2-furylmethyl)-L-α-glutamine]	290 nM
CC(C)NC(=O)[C@H](CCC(=O)O)NC(=O)c1ccc(-c2ccccc2)cc1 [Example 8PPP, N^2-(biphenyl-4-ylcarbonyl)-N^1-isopropyl-L-α-glutamine]	130 nM
CCCCCCNC(=O)[C@H](CCC(=O)O)NC(=O)c1cccc2c1Cc1ccccc1-2 [Example 8PPPP, N^2-(9H-fluoren-1-ylcarbonyl)-N^1-hexyl-L-α-glutamine]	> 50000 nM
COc1cccc(CNC(=O)[C@H](CCC(=O)O)NC(=O)Cc2ccc(-c3ccccc3)cc2)c1 [Example 8PPPPPP, N^2-(1,1′-biphenyl-4-ylacetyl)-N^1-(3-methoxybenzyl)-L-α-glutamine]	> 33000 nM
O=C(O)CC[C@H](NC(=O)c1ccc(-c2ccccc2)cc1)C(=O)NCc1ccncc1 [Example 8QQQ, N^2-(biphenyl-4-ylcarbonyl)-N^1-(pyridin-4-ylmethyl)-L-α-glutamine]	330 nM
CCCCCCNC(=O)[C@H](CCC(=O)O)NC(=O)c1ccc(Oc2ccccc2)cc1 [Example 8QQQQ, N^1-hexyl-N^2-(4-phenoxybenzoyl)-L-α-glutamine]	9600 nM
O=C(O)CC[C@H](NC(=O)c1ccc(-c2ccccc2)cc1)C(=O)Nc1ccccc1Cc1ccccc1 [Example 8QQQQQQ, N^1-(2-benzylphenyl)-N^2-(1,1′-biphenyl-4-ylcarbonyl)-L-α-glutamine]	690 nM
CCCCCCNC(=O)[C@H](CCC(=O)O)NC(=O)c1ccc2c(c1)C(=O)c1ccccc1-2 [Example 8RRRR, N^1-hexyl-N^2-[(9-oxo-9H-fluoren-2-yl)carbonyl]-L-α-glutamine]	122 nM
O=C(O)CC[C@H](NC(=O)c1ccc2ccccc2c1)C(=O)NCCCc1ccccc1 [Example 8RRRRRR, N^2-2-naphthoyl-N^1-(3-phenylpropyl)-L-α-glutamine]	3600 nM
O=C(O)CC[C@H](NC(=O)c1ccc(C(=O)c2ccccc2)cc1)C(=O)NCc1ccccc1 [Example 8SSSS, N^2-(4-benzoylbenzoyl)-N^1-benzyl-L-α-glutamine]	> 200000 nM

Same assay, conditions: Table 2; read-out: Agg1 IC50

Compound	IC50
CCCCN(C)C(=O)[C@H](CCC(=O)O)NC(=O)c1ccc(-c2ccccc2)cc1 [Example 8EEEEEE, N^2-(biphenyl-4-ylcarbonyl)-N-butyl-N-methyl-L-α-glutamine]	5000 nM
COc1ccc(CCN(C)C(=O)[C@H](CCC(=O)O)NC(=O)c2ccc(-c3ccccc3)cc2)cc1OC [Example 8GGGGGG, N^2-(biphenyl-4-ylcarbonyl)-N-[2-(3,4-dimethoxyphenyl)ethyl]-N-methyl-L-α-glutamine]	4200 nM
